These results are taken from PubChem BioAssay AID1259411 (Chemical Carcinogenesis Research Information System (CCRIS), 2018).

Activity calls are given as the source filed them. How the calls were made is not given here.

The data set concerns rodent carcinogenicity bioassays, tumor incidence. The data set is described as follows: CCRIS carcinogenicity studies. In short, it runs like this: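 Archive of carcinogenicity, mutagenicity, tumor promotion and tumor inhibition results drawn from journals, NCI reports and other sources, expert-reviewed; covers 1985-2011 and is no longer updated.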

Consider `CCCCCC(O)/C=C/C=O` (stereo not drawn), for which the carcinogen call (Species: MOUSE, Strain/Sex: B6C3F1/FEMALE, Route: INTRAPERITONEAL, Dose: 0, 750 NMOL TOTAL DOSE, 1/3 AND 2/3 OF THE TOTAL DOSE ADMINISTERED AT 8 AND 15 DAYS OF AGE RESPECTIVELY, ANIMALS TERMINA) was “inactive; negative”; the carcinogen call (Species: MOUSE, Strain/Sex: B6C3F1/FEMALE, Route: INTRAPERITONEAL, Dose: 0, 1500 NMOL TOTAL DOSE, 1/3 AND 2/3 OF THE TOTAL DOSE ADMINISTERED AT 8 AND 15 DAYS OF AGE RESPECTIVELY, ANIMALS TERMIN) was “inactive; negative”; the carcinogen call (Species: MOUSE, Strain/Sex: B6C3F1/MALE, Route: INTRAPERITONEAL, Dose: 0, 750 NMOL TOTAL DOSE, 1/3 AND 2/3 OF THE TOTAL DOSE ADMINISTERED AT 8 AND 15 DAYS OF AGE RESPECTIVELY, ANIMALS TERMINA) was “inactive; negative”; the carcinogen call (Species: MOUSE, Strain/Sex: B6C3F1/MALE, Route: INTRAPERITONEAL, Dose: 0, 1500 NMOL TOTAL DOSE, 1/3 AND 2/3 OF THE TOTAL DOSE ADMINISTERED AT 8 AND 15 DAYS OF AGE RESPECTIVELY, ANIMALS TERMIN) is “inactive; negative”; the carcinogen call (Species: MOUSE, Strain/Sex: CD-1/FEMALE, Route: INTRAPERITONEAL, Dose: 0, 50, 100, 200 NMOL/MOUSE (TOTAL DOSE) ADMINISTERED IN 3 DOSES ON DAY 1, 8 AND 15 OF STUDY (STUDY DURATION: 6 WK), Dose: 0, 50, 100, 200 NMOL/MOUSE (TOTAL DOSE) ADMINISTERED IN 3 DOSES ON DAY 1, 8 AND 15 OF STUDY (STUDY DURATION: 6 WK)) is “inactive; negative”; the carcinogen call (Species: MOUSE, Strain/Sex: CD-1/MALE, Route: INTRAPERITONEAL, Dose: 0, 50, 100, 200 NMOL/MOUSE (TOTAL DOSE) ADMINISTERED IN 3 DOSES ON DAY 1, 8 AND 15 OF STUDY (STUDY DURATION: 6 WK), Dose: 0, 50, 100, 200 NMOL/MOUSE (TOTAL DOSE) ADMINISTERED IN 3 DOSES ON DAY 1, 8 AND 15 OF STUDY (STUDY DURATION: 6 WK)) is “inactive; negative”.

Turning to `Cc1cc2c(c3ccc4ccccc4c13)C=C[C@@H](O)[C@@H]2O`, the carcinogen call is “active; positive” (Species: MOUSE, Strain/Sex: ICR/FEMALE, Route: INTRAPERITONEAL, Dose: 8 NMOL/5 µL DMSO ON DAY 1, 16 NMOL/10 µL ON DAY 8, AND 32 NMOL/20 µL ON DAY 15 OF AGE (STUDY DURATION: 35 WK), Tumor Site: Type of Lesion: LUNG: TUMORS, LIVER: TUMORS) and “active; positive” (Species: MOUSE, Strain/Sex: ICR/MALE, Route: INTRAPERITONEAL, Dose: 8 NMOL/5 µL DMSO ON DAY 1, 16 NMOL/10 µL ON DAY 8, AND 32 NMOL/20 µL ON DAY 15 OF AGE (STUDY DURATION: 35 WK), Tumor Site: Type of Lesion: LUNG: TUMORS).

`CC1CN(N=O)CC(C)N1C(=O)c1ccccc1` (stereo not drawn): the carcinogen call (Species: RAT, Strain/Sex: F344/FEMALE, Route: ORAL, Dose: 0, 172 MG/L IN DRINKING WATER 5 D/WK FOR 50 WK, STUDY DURATION: 120-130 WK, Dose: 0, 172 MG/L IN DRINKING WATER 5 D/WK FOR 50 WK, STUDY DURATION: 120-130 WK, Tumor Site: Type of Lesion: FORESTOMACH: PAPILLOMA OR CARCINOMA) is “active; positive”.

On to `CNC[C@H](O)c1cccc(O)c1`, for which the carcinogen call is, setting by setting: (Species: MOUSE, Strain/Sex: B6C3F1/FEMALE, Route: ORAL, Dose: 0, 1250, 2500 PPM IN DIET FOR 103 WK, Dose: 0, 1250, 2500 PPM IN DIET FOR 103 WK) “inactive; negative”; (Species: MOUSE, Strain/Sex: B6C3F1/MALE, Route: ORAL, Dose: 0, 1250, 2500 PPM IN DIET FOR 103 WK, Dose: 0, 1250, 2500 PPM IN DIET FOR 103 WK) “inactive; negative”; (Species: RAT, Strain/Sex: F344/FEMALE, Route: ORAL, Dose: 0, 620, 1250 PPM IN DIET FOR 103 WK, Dose: 0, 620, 1250 PPM IN DIET FOR 103 WK) “inactive; negative”; (Species: RAT, Strain/Sex: F344/MALE, Route: ORAL, Dose: 0, 620, 1250 PPM IN DIET FOR 103 WK, Dose: 0, 620, 1250 PPM IN DIET FOR 103 WK) “inactive; negative”.

In the case of `[Cl][Fe]([Cl])[Cl]`, the carcinogen call (Species: RAT, Strain/Sex: F344/FEMALE, Route: ORAL, Dose: 0, 0.25, 0.5% IN DRINKING WATER FOR 104 WK (STUDY DURATION: 112 WK), Dose: 0, 0.25, 0.5% IN DRINKING WATER FOR 104 WK (STUDY DURATION: 112 WK)) is “inactive; negative” and the carcinogen call (Species: RAT, Strain/Sex: F344/MALE, Route: ORAL, Dose: 0, 0.25, 0.5% IN DRINKING WATER FOR 104 WK (STUDY DURATION: 112 WK), Dose: 0, 0.25, 0.5% IN DRINKING WATER FOR 104 WK (STUDY DURATION: 112 WK)) is “inactive; negative”.

As for `CN(C)c1ccc(C(c2ccccc2)c2ccc(N(C)C)cc2)cc1`, the carcinogen call (Species: MOUSE, Strain/Sex: B6C3F1/FEMALE, Route: ORAL (DIET), Dose: 0, 91, 204, 408 PPM IN DIET FOR 2 YRS, Dose: 0, 91, 204, 408 PPM IN DIET FOR 2 YRS, Tumor Site: Type of Lesion: LIVER: HEPATOCELLULAR ADENOMA OR CARCINOMA) is “active; positive; incidence of tumors was statistically significant”; the carcinogen call (Species: RAT, Strain/Sex: F344/N/FEMALE, Route: DIET, Dose: 0, 91, 272, 543 PPM IN DIET FOR 2 YRS, Dose: 0, 91, 272, 543 PPM IN DIET FOR 2 YRS, Tumor Site: Type of Lesion: LIVER: HEPATOCELLULAR ADENOMA, THYROID: FOLLICULAR CELL ADENOMA OR CARCINOMA) was “equivocal; none of the tumor incidences reached statistical significance; for th”; the carcinogen call (Species: RAT, Strain/Sex: F344/N/MALE, Route: ORAL (DIET), Dose: 0, 91, 272, 543 PPM IN DIET FOR 2 YRS, Dose: 0, 91, 272, 543 PPM IN DIET FOR 2 YRS, Tumor Site: Type of Lesion: TESTIS: INTERSTITIAL CELL ADENOMA, THYROID: FOLLICULAR CELL ADENOMA OR CARCINOMA) is on record as “equivocal; thyroid tumors did not reach statistical significance”.

With `C=C/C=N/O`, the carcinogen call (Species: HAMSTER, Strain/Sex: SYRIAN/MALE, Route: GAVAGE, Dose: 0, 2 MG/WK FOR 53 WK (STUDY DURATION: 92 WK)) is “inactive; negative”; the carcinogen call (Species: RAT, Strain/Sex: F344/FEMALE, Route: ORAL, Dose: 0, 320 MG/L IN DRINKING WATER 5 D/WK FOR 100 WK (STUDY DURATION: 130 WK)) is “inactive; negative”; the carcinogen call (Species: RAT, Strain/Sex: F344/FEMALE, Route: ORAL, Dose: 0, 800 MG/L IN DRINKING WATER 5 D/WK FOR 30 WK (STUDY DURATION: 130 WK)) was “inactive; negative”; the carcinogen call (Species: RAT, Strain/Sex: F344/MALE, Route: ORAL, Dose: 0, 320 MG/L IN DRINKING WATER 5 D/WK FOR 100 WK (STUDY DURATION: 130 WK)) was “inactive; negative”; the carcinogen call (Species: RAT, Strain/Sex: F344/MALE, Route: ORAL, Dose: 0, 800 MG/L IN DRINKING WATER 5 D/WK FOR 30 WK (STUDY DURATION: 130 WK)) is “inactive; negative”.
